These results are taken from ChEMBL document CHEMBL1153475, “Novel indoline-based acyl-CoA: cholesterol acyltransferase inhibitor: Effects of introducing a methanesulfonamide group on physicochemical properties and biological activities” (Bioorg Med Chem, 2009).

For data set [1], the system named is THP-1. Put plainly: Anti-foam cell formation activity in human THP1 cells assessed as inhibition of esterified cholesterol accumulation after 24 hrs in presence of Japanese white rabbit high-cholesterol serum. Format: functional, cell-based. The settings on record: THP-1, 24 h.
Data set [2] deals with T1, Acyl-CoA:cholesterol acyltransferase (Oryctolagus cuniculus, UniProt Q95214).
T1 sequence (Q95214 whole entry): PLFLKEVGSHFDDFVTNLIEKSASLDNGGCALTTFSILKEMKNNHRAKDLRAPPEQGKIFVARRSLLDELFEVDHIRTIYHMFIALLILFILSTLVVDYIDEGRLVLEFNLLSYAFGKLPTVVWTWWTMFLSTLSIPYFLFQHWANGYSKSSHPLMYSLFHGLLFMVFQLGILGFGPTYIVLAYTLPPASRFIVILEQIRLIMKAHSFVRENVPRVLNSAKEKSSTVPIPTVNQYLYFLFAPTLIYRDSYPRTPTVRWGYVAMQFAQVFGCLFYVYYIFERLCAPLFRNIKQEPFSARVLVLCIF
Briefly: Inhibition of ACAT in Japanese White rabbit liver microsomes. Further details: species or system Microsome. A general note: Liver microsomes are vesicles of endoplasmic reticulum, rich in cytochrome P450 enzymes.

A short description of data set [3]: Tmax in Sprague-Dawley rat at 10 mg/kg, po. Further details: dose 10 mg/kg, route oral. The settings on record: in vivo. It is filed as ADME, organism-based.
A short description of data set [4]: AUC (0 to 24 hrs) in Sprague-Dawley rat at 10 mg/kg, po. It is filed as ADME, organism-based. The arrangement: time < 24 hr, dose 10 mg/kg, route oral. The settings on record: plasma.
A short description of data set [5]: Cmax in Sprague-Dawley rat at 10 mg/kg, po. Format: ADME, organism-based. The arrangement: dose 10 mg/kg, route oral. The settings on record: in vivo.
Data set [6] can be described thus: Half life in Sprague-Dawley rat at 10 mg/kg, po. Format: ADME, organism-based. The arrangement: dose 10 mg/kg, route oral. The settings on record: in vivo.
For data set [7], the system named is THP-1. Put plainly: Anti-foam cell formation activity in human THP1 cells assessed as inhibition of esterified cholesterol accumulation after 24 hrs in presence of albumin. It is filed as functional.
The subject of data set [8] is Mus musculus. Put plainly: Inhibition of hepatic cholesterol secretion in ICR mouse at 10 mg/kg, po after 3 hrs by enzymatic method. It is filed as functional.
Data set [9] is described as follows: Protein binding in rat plasma assessed as total and protein free fraction concentration at 10 ug/ML after 150 mins by ultracentrifugation method. The settings on record: read-out: PPB (converted). It is filed as ADME, cell-free.

What is called IC50 is the concentration needed to halve the response being measured. By Tmax is commonly meant the time from dosing to the highest level. For orientation: AUC(0-t) means exposure summed from dosing to a finite time, without extrapolation to infinity. One may read the Cmax as the maximum level reached in the sampled fluid or tissue. As a reminder, the half-life is how long it takes for the measured level to halve. Low readings indicate rapid decline, high ones slow decline. What is called inhibition in vivo is how much of the control response was suppressed.

On to `Cc1c2c(c(NC(=O)C(C)(C)C)c(C)c1NS(C)(=O)=O)N(C)CC2`, for which the IC50 in [1] is 7500 nM; in data set [2] it was 8800 nM.

On to `CCCCCCCCN1CCc2c(C)cc(C)c(NC(=O)C(C)(C)C)c21`, for which, in data set [1], the IC50 stood at 290 nM.

Consider `CCN1CCc2c(C)c(NS(C)(=O)=O)c(C)c(NC(=O)C(C)(C)C)c21`, for which, in data set [3], the Tmax was 0.5 h. Besides, in data set [4], the AUC(0-t) at 24 h was 10800 ng·h/mL. The compound also returned a Cmax in data set [5] of 2900 ng/mL. The half-life in data set [6] was 2.59 h.

As for `CCCCCCCCCCCN1CCc2c(C)c(CC(=O)O)c(C)c(NC(=O)C(C)(C)C)c21`, the 50% inhibitory concentration (IC50) in data set [1] was 850 nM; in data set [2] it was 960 nM.

For the compound `CCCN1CCCc2c(C)c(NS(C)(=O)=O)c(C)c(NC(=O)C(C)(C)C)c21`, the half-maximal inhibitory concentration (IC50) in [1] came out at 290 nM; in data set [2], 130 nM.

`CCCCN1CCc2c(C)c(NS(C)(=O)=O)c(C)c(NC(=O)C(C)(C)CC)c21`: the 50% inhibitory concentration (IC50) in data set [1] is 45 nM; in data set [2] it was 53 nM.

On to `CCCCCCCCN1CCc2c(C)c(CC(=O)O)c(C)c(NC(=O)C(C)(C)C)c21` [PACTIMIBE], for which, in data set [7], the “fold change (FC)” value amounted to 10. In addition, the Tmax in data set [3] was 0.67 h. Moreover, the AUC(0-t) at 24 h in data set [4] came out at 2800 ng·h/mL. Further, in data set [5], the Cmax was 800 ng/mL. This compound showed a half-life in data set [6] of 7.37 h. In data set [8], this compound had an inhibition in vivo at 10 mg/kg of 28%. Also, the fraction unbound at […], 10 ug/mL in data set [9] was 0.021.

With `CCCCN1CCc2c(C)cc(C)c(NC(=O)C(C)(C)C)c21`, the half-maximal inhibitory concentration (IC50) in [1] is 1100 nM; in data set [2] it was 220 nM.

For `CCCCCCCCCCN1CCc2c(C)c(CC(=O)O)c(C)c(NC(=O)C(C)(C)C)c21`, the half-maximal inhibitory concentration (IC50) in [1] was 980 nM; in data set [2] it was 910 nM.

Consider `CCOCCN1CCc2c(C)c(NS(C)(=O)=O)c(C)c(NC(=O)C(C)(C)C)c21`, for which the IC50 amounted to 820 nM in data set [1] and 310 nM in [2].

Turning to `CCCCCCCCN1CCc2c(C)c(CC(=O)O)c(C)c(NC(=O)C(C)(C)C)c21`, the results for the IC50 in data set [1] and in data set [2] were 2000 nM and 2300 nM, respectively.

`COCCN1CCc2c(C)c(NS(C)(=O)=O)c(C)c(NC(=O)C(C)(C)C)c21`: the IC50 in data set [1] came to 1600 nM; in data set [2] it was 270 nM.
